Results reported in US12642791B2, “Inhibitors of lysyl oxidases” (UNIVERSITY OF SOUTH CAROLINA, priority 2021, dated 2026).

Legend:
4T1 = experiment: Syngeneic TNBC tumor model; format: in vivo, BALB/c mice
Procedure: FIG. 43. 6403 overcomes doxorubicin resistance without major toxicity in a syngeneic mouse model, 4T1. A. Tumor growth in 4T1 model treated with doxorubicin (2 mg/kg, I.V, weekly), 6403 (50 mg/kg, P.O, daily) or their combination. Representative pictures of the tumors shown on the right panel. B. Western blot analysis of LOX in 4T1 tumors from A. C. % body weight change of mice from A. D. Blood cell counts in mice from A at the end of the experiment. 500,000 4T1 cells were injected into MFP of 6-8 weeks old female BALB/c mice. When the tumors reach 100 mm3, mice were randomly distributed to 4 groups and treated with vehicle, doxorubicin (2 mg/kg once a week, I.V.), 6403 (50 mg/kg daily, oral gavage) or the combination of doxorubicin with 6403. Tumor volumes were measured using a caliper every two days, and body weights were also recorded. After 3 weeks of treatment, blood was withdrawn, and blood cells were quantified using VetScan HM5 Hematology Analyzer.

PK analysis = format: in vivo, BALB/c mice; settings: mice, orally 50 mg/kg, n=3
Procedure: PK profiles of Lead LOX inhibitor, 6403 was tested in BALB/c mice. Three mice per group were dosed by oral gavage at 50 mg/kg. Serum samples were collected at time points; 0.25, 0.5, 2, 7 and 24 hours. 6403 was diluted with serum from healthy mice as standard and serum levels of LOX inhibitors were quantified by LC-MS/MS methods, compared to the standard readings and followed by calculation of PK parameters, including Cmax, AUC, T1/2 values, clearance (Cl) and oral bioavailability (F %). Cmax represents the maximum concentration of drug that observed in the serum. AUC is a measure of the total exposure of the drug in the serum. T1/2, half-life, is the time required to eliminate half of the drug. Cl is defined as the volume of blood from which all drug is removed per minute.

Caki-1 cells = experiment: ECM crosslinking in kidney cancer cells; format: cell-based, human; settings: 6232 at 10 uM, BAPN at 10 mM
Procedure: Immunofluorescence staining of cells was done in μ-Slide 8-well glass bottom chambers (Ibidi, Germany). Cells were fixed with 4% paraformaldehyde for 20 min, permeabilized with 0.5% Triton X-100 for 10 min and blocked in 5% BSA-PBS. Samples were incubated with primary (Collagen I, Fibronectin, F-actin, a-SMA) and secondary Alexa Fluor 647 or 488-labeled antibodies for 1.5 hours at room temperature. Cells were also counterstained with DAPI for 5 min. Images were acquired using ZEN 2012 SP5 (Black) LSM 700 (Carl Zeiss, DE).

blood counts (4T1; combination, 21-day treatment)	Area Under the Curve (AUC) (PK analysis)	clearance (Cl) (PK analysis)	half-life (T½) (PK analysis)	maximum concentration (Cmax) (PK analysis)	volume of distribution (Vd) (PK analysis)	Structure (SMILES)	tumor growth (4T1; 6403 50 mg/kg P.O. daily with doxorubicin 2 mg/kg I.V. weekly, vs either alone)	body weights (4T1; combination, 21-day treatment)	ECM crosslinking (Caki-1 cells)
no significant change	high	low	long	high	high	CC(=O)Nc1ccc(Nc2nc(-c3sc(N)nc3C)cs2)cc1 [compound 6403, N-[4-[[4-(2-amino-4-methyl-thiazol-5-yl)thiazol-2-yl]amino]phenyl]acetamide]	significantly reduced tumor growth	no significant change	
						Cc1nc(N)sc1-c1csc(Nc2ccc([N+](=O)[O-])cc2)n1 [compound 6232, 4-methyl-5-[2-(4-nitroanilino)thiazol-4-yl]thiazol-2-amine]			decrease in ECM crosslinking
